Values quoted from earlier work in patent US20050118266A1, “Sustained/controlled release solid formulation as a novel drug delivery system with reduced risk of dose dumping” (priority 2002, published 2005).

Settings: according to Biopharmaceutics Classification System

| SMILES | BCS class | solubility (BCS category) |
| --- | --- | --- |
| O=C(O)Cc1ccccc1Nc1c(Cl)cccc1Cl [diclofenac sodium] | Class II | poorly soluble |
| NCC1(CC(=O)O)CCCCC1 [gabapentin] |  | highly soluble |
| CC[C@H](C)C(=O)O[C@H]1C[C@H](O)C=C2C=C[C@H](C)[C@H](CC[C@@H](O)C[C@@H](O)CC(=O)O)[C@H]21 [pravastatin sodium] |  | highly soluble |
| CNC(=C[N+](=O)[O-])NCCSCc1ccc(CN(C)C)o1 [ranitidine] |  | highly soluble |
| Cc1cccc(Nc2ccncc2S(=O)(=O)NC(=O)NC(C)C)c1 [torasemide] | Class I | highly soluble |
